Test results from patent US11713335B2, “Aminocoumarin compounds and methods of their use” (President and Fellows of Harvard College, priority 2018, dated 2023).
Values after ≈ are worked out from the molar mass of the structure shown. Read-outs that look alike come from different tables or passages of the source.

Tests used:
E. coli MC4100 = assay: Minimal inhibitory concentration, E. coli MC4100; assay type: cell-based; conditions: 16 hour minimal inhibitory concentration at 37° C., read-out: MIC (μM) E. coli MC4100 ara+
How it was run: (§1)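 Overnight cultures in LB (TSA for S. aureus) at 37 °C, diluted 1:100 twice, then exposed to twofold serial dilutions of compound from DMSO stock. Plates incubated unshaken 16 h at 37 °C and read at OD600. MIC (µM) is the lowest concentration inhibiting growth.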

WT E. coli = assay: Minimal inhibitory concentration in wild-type E. coli; assay type: cell-based, Escherichia coli; conditions: read-out: MIC (μM) in WT E. coli
How it was run: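 Broth microdilution: saturated LB overnight culture diluted 1:100 twice, compound serially two-fold diluted across the plate from DMSO stock. Static incubation 16 hours at 37° C, OD600 read; MIC taken as lowest concentration inhibiting growth.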

S. aureus MW2 = assay: Minimal inhibitory concentration, S. aureus MW2; assay type: cell-based; conditions: read-out: MIC (μM) S. aureus MW2 (MRSA)
How it was run: as §1

S. aureus RN4220 = assay: Minimal inhibitory concentration, S. aureus RN4220; assay type: cell-based; conditions: 16 hour minimal inhibitory concentration at 37° C., read-out: MIC (μM) S. aureus RN4220
How it was run: as §1

E. cloacae 13047 = assay: Minimal inhibitory concentration, E. cloacae 13047; assay type: cell-based; conditions: 16 hour minimal inhibitory concentration at 37° C., read-out: MIC (μM) E. cloacae 13047
How it was run: as §1

K. pneumoniae 700721 = assay: Minimal inhibitory concentration, K. pneumoniae 700721; assay type: cell-based; conditions: 16 hour minimal inhibitory concentration at 37° C., read-out: MIC (μM) K. pneumoniae 700721
How it was run: as §1

A. baumannii 19606 = assay: Minimal inhibitory concentration, A. baumannii 19606; assay type: cell-based; conditions: 16 hour minimal inhibitory concentration at 37° C., read-out: MIC (μM) A. baumannii 19606
How it was run: as §1

E. coli 25922 = assay: Minimal inhibitory concentration, E. coli 25922; assay type: cell-based; conditions: 16 hour minimal inhibitory concentration at 37° C., read-out: MIC (μM) E. coli 25922
How it was run: as §1

[1] = Escherichia coli, wild-type E. coli, 37° C., 16 hours
[2] = Staphylococcus aureus, MRSA, 16 h, 16 hour minimal inhibitory concentration at 37° C.
[3] = Staphylococcus aureus, RN4220, 16 h
[4] = Acinetobacter baumannii, 19606, 16 h
[5] = wild-type E. coli, 37° C., 16 hours
[6] = 16 hour minimal inhibitory concentration at 37° C.

Structure (SMILES)	MIC (E. coli MC4100; Escherichia coli, MC4100, 16 h) [µM]	MIC (WT E. coli; [1]) [µM]	MIC (S. aureus MW2; [2]) [µM]	MIC (S. aureus RN4220; [3]) [µM]	MIC (E. cloacae 13047; Enterobacter cloacae, 13047) [µM]	MIC (K. pneumoniae 700721; Klebsiella pneumoniae, 700721) [µM]	MIC (A. baumannii 19606; [4]) [µM]	MIC (E. coli 25922; Escherichia coli, 25922, 16 h) [µM]	MIC (E. coli MC4100) [µM]	MIC (WT E. coli; [5]) [µM]	MIC (S. aureus MW2; [6]) [µM]	MIC (S. aureus RN4220) [µM]	MIC (E. cloacae 13047) [µM]	MIC (K. pneumoniae 700721) [µM]	MIC (A. baumannii 19606) [µM]	MIC (E. coli 25922) [µM]	also measured
CO[C@@H]1[C@@H](OC(N)=O)[C@@H](O)[C@H](Oc2ccc3c(O)c(NC(=O)c4ccc(O)c(CC=C(C)C)c4)c(=O)oc3c2C)OC1(C)C [Novobiocin, novobiocin, reference compound]	59 (≈ 36.1 µg/mL)	59 (≈ 36.1 µg/mL)	0.25 (≈ 0.153 µg/mL)	0.2 (≈ 0.123 µg/mL)	> 100	> 100	1.27 (≈ 0.778 µg/mL)	40 (≈ 24.5 µg/mL)	–	–	–	–	–	–	–	–	–
CO[C@@H]1[C@@H](OC(N)=O)[C@@H](O)[C@H](Oc2ccc3c(O)c(NC(=O)c4ccc(O)c(-c5ccc6ccccc6c5)c4)c(=O)oc3c2C)OC1(C)C [Compound 92]	–	–	–	–	–	–	–	–	150 (≈ 101 µg/mL)	150 (≈ 101 µg/mL)	0.09 (≈ 0.0604 µg/mL)	0.09 (≈ 0.0604 µg/mL)	>100	>100	1.16 (≈ 0.778 µg/mL)	>200	–
CO[C@@H]1[C@@H](OC(N)=O)[C@@H](O)[C@H](Oc2ccc3c(O)c(NC(=O)/C=C/c4ccccc4)c(=O)oc3c2C)OC1(C)C [Compound 27]	> 200	> 300	23 (≈ 12.8 µg/mL)	45 (≈ 25 µg/mL)	> 100	> 100	> 50	> 200	–	–	–	–	–	–	–	–	–
CO[C@@H]1[C@@H](OC(N)=O)[C@@H](O)[C@H](Oc2ccc3c(O)c(NC(=O)c4ccc(O)c(C/C=C/C(C)=O)c4)c(=O)oc3c2C)OC1(C)C [Compound 81]	–	–	–	40 (≈ 25.1 µg/mL)	> 100	> 100	–	–	–	–	–	–	–	–	–	–	MIC (E. coli MC4100; Escherichia coli, MC4100): > 200 µM; MIC (WT E. coli; Escherichia coli, 16 h): > 300 µM; MIC (S. aureus MW2; Staphylococcus aureus, MRSA, 16 h): 40 µM (≈ 25.1 µg/mL); MIC (A. baumannii 19606; Acinetobacter baumannii, 19606): > 50 µM; MIC (E. coli 25922; Escherichia coli, 25922): > 200 µM
CO[C@@H]1[C@@H](OC(N)=O)[C@@H](O)[C@H](Oc2ccc3c(O)c(NC(=O)c4cc5ccccc5o4)c(=O)oc3c2C)OC1(C)C [Compound 6]	> 200	> 300	88 (≈ 50 µg/mL)	88 (≈ 50 µg/mL)	> 100	> 100	> 50	> 200	–	–	–	–	–	–	–	–	–
CO[C@@H]1[C@@H](OC(N)=O)[C@@H](O)[C@H](Oc2ccc3c(O)c(NC(=O)c4cccc(-c5cccc(C(F)(F)F)c5)c4)c(=O)oc3c2C)OC1(C)C [Compound 56]	–	–	–	–	–	–	–	–	>200	>300	0.46 (≈ 0.309 µg/mL)	0.74 (≈ 0.498 µg/mL)	>100	>100	37 (≈ 24.9 µg/mL)	>200	–
CO[C@@H]1[C@@H](OC(N)=O)[C@@H](O)[C@H](Oc2ccc3c(O)c(NC(=O)c4cccc(-c5cccc(OC(F)(F)F)c5)c4)c(=O)oc3c2C)OC1(C)C [Compound 58]	–	–	–	–	–	–	–	–	89 (≈ 61.3 µg/mL)	89 (≈ 61.3 µg/mL)	0.18 (≈ 0.124 µg/mL)	0.36 (≈ 0.248 µg/mL)	>100	>100	18 (≈ 12.4 µg/mL)	>200	–
CO[C@@H]1[C@@H](OC(N)=O)[C@@H](O)[C@H](Oc2ccc3c(O)c(NC(=O)c4cccc(-c5ccc(I)cc5)c4)c(=O)oc3c2C)OC1(C)C [Compound 34]	59 (≈ 43.1 µg/mL)	59 (≈ 43.1 µg/mL)	0.43 (≈ 0.314 µg/mL)	0.43 (≈ 0.314 µg/mL)	> 100	> 100	9 (≈ 6.57 µg/mL)	68 (≈ 49.7 µg/mL)	–	–	–	–	–	–	–	–	–
CO[C@@H]1[C@@H](OC(N)=O)[C@@H](O)[C@H](Oc2ccc3c(O)c(NC(=O)c4cccc(-c5cccc(C)c5)c4)c(=O)oc3c2C)OC1(C)C [Compound 51]	26 (≈ 16.1 µg/mL)	26 (≈ 16.1 µg/mL)	1 (≈ 0.619 µg/mL)	1.62 (≈ 1 µg/mL)	> 100	> 100	40 (≈ 24.7 µg/mL)	81 (≈ 50.1 µg/mL)	–	–	–	–	–	–	–	–	–
CO[C@@H]1[C@@H](OC(N)=O)[C@@H](O)[C@H](Oc2ccc3c(O)c(NC(=O)c4cccc(-c5ccccc5F)c4)c(=O)oc3c2C)OC1(C)C [Compound 37]	59 (≈ 36.7 µg/mL)	59 (≈ 36.7 µg/mL)	10 (≈ 6.23 µg/mL)	10 (≈ 6.23 µg/mL)	> 100	> 100	> 50	80 (≈ 49.8 µg/mL)	–	–	–	–	–	–	–	–	–
CO[C@@H]1[C@@H](OC(N)=O)[C@@H](O)[C@H](Oc2ccc3c(O)c(NC(=O)c4cccc5ccn(C)c45)c(=O)oc3c2C)OC1(C)C [Compound 74]	–	–	–	–	–	–	–	–	>200	>300	>100	>100	>100	>100	>50	>200	–
CO[C@@H]1[C@@H](OC(N)=O)[C@@H](O)[C@H](Oc2ccc3c(O)c(NC(=O)c4ccc(O)cc4)c(=O)oc3c2C)OC1(C)C [Compound 30]	> 200	> 300	46 (≈ 25 µg/mL)	46 (≈ 25 µg/mL)	> 100	> 100	> 50	> 200	–	–	–	–	–	–	–	–	–
COc1cccc(OC)c1C(=O)Nc1c(O)c2ccc(O[C@@H]3OC(C)(C)[C@H](OC)[C@@H](OC(N)=O)[C@H]3O)c(C)c2oc1=O [Compound 10]	> 200	> 300	85 (≈ 50 µg/mL)	> 100	> 100	> 100	> 50	> 200	–	–	–	–	–	–	–	–	–
CO[C@@H]1[C@@H](OC(N)=O)[C@@H](O)[C@H](Oc2ccc3c(O)c(NC(=O)c4cccc(-c5ccccc5[N+](=O)[O-])c4)c(=O)oc3c2C)OC1(C)C [Compound 64]	–	–	–	–	–	–	–	–	>200	>300	39 (≈ 25.3 µg/mL)	77 (≈ 50 µg/mL)	>100	>100	>50	>200	–
COc1ccc(C(=O)Nc2c(O)c3ccc(O[C@@H]4OC(C)(C)[C@H](OC)[C@@H](OC(N)=O)[C@H]4O)c(C)c3oc2=O)cc1 [Compound 7]	> 200	> 300	45 (≈ 25.1 µg/mL)	45 (≈ 25.1 µg/mL)	> 100	> 100	> 50	> 200	–	–	–	–	–	–	–	–	–
CO[C@@H]1[C@@H](OC(N)=O)[C@@H](O)[C@H](Oc2ccc3c(O)c(NC(=O)c4cccc(-c5ccc(C)cc5)c4)c(=O)oc3c2C)OC1(C)C [Compound 20]	–	–	–	–	–	–	–	–	26 (≈ 16.1 µg/mL)	26 (≈ 16.1 µg/mL)	3 (≈ 1.86 µg/mL)	2.5 (≈ 1.55 µg/mL)	>100	>100	40 (≈ 24.7 µg/mL)	40 (≈ 24.7 µg/mL)	–
CO[C@@H]1[C@@H](OC(N)=O)[C@@H](O)[C@H](Oc2ccc3c(O)c(NC(=O)c4cccc(Oc5ccccc5)c4)c(=O)oc3c2C)OC1(C)C [Compound 35]	8 (≈ 4.96 µg/mL)	8 (≈ 4.96 µg/mL)	20 (≈ 12.4 µg/mL)	40 (≈ 24.8 µg/mL)	> 100	> 100	> 50	10 (≈ 6.21 µg/mL)	–	–	–	–	–	–	–	–	–
CO[C@@H]1[C@@H](OC(N)=O)[C@@H](O)[C@H](Oc2ccc3c(O)c(NC(=O)c4cccc(-c5cccc(F)c5)c4)c(=O)oc3c2C)OC1(C)C [Compound 38]	26 (≈ 16.2 µg/mL)	26 (≈ 16.2 µg/mL)	10 (≈ 6.23 µg/mL)	5 (≈ 3.11 µg/mL)	> 100	> 100	> 50	40 (≈ 24.9 µg/mL)	–	–	–	–	–	–	–	–	–
CO[C@@H]1[C@@H](OC(N)=O)[C@@H](O)[C@H](Oc2ccc3c(O)c(NC(=O)c4cccc(-c5ccc(O)c(O)c5)c4)c(=O)oc3c2C)OC1(C)C [Compound 94]	–	–	–	–	–	–	–	–	>200	>300	20 (≈ 12.7 µg/mL)	20 (≈ 12.7 µg/mL)	>100	>100	>50	>200	–
CO[C@@H]1[C@@H](OC(N)=O)[C@@H](O)[C@H](Oc2ccc3c(O)c(NC(=O)c4cccc(-c5ccc([N+](=O)[O-])cc5)c4)c(=O)oc3c2C)OC1(C)C [Compound 24]	–	–	–	–	–	–	–	–	>200	>300	5 (≈ 3.25 µg/mL)	5 (≈ 3.25 µg/mL)	>100	>100	>50	154 (≈ 100 µg/mL)	–
